{"source": "PubChem BioAssay AID1189", "about": "(EPA DSSTox, 2008)", "note": "Activity calls are given as the source filed them.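 Rule for the calls: active = a tumor-causing dose value with its tumor site reported for any sex and species group of a rodent or other animal cancer study; inconclusive = only studies judged inadequate by the national testing program; inactive = tested in at least one study, none positive.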", "data": [{"assay": "DSSTox (CPDBAS) Carcinogenic Potency Database Summary SingleCellCall Results", "conditions": "animal chronic carcinogenicity bioassays, CPDB summary call", "summary_of_the_method": "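Categorical carcinogenicity call compiled from published chronic rodent and other animal cancer bioassays; based on the most positive result across experiments for each sex-species, assigned on minimal evidence for or against activity.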", "values": [{"smiles": "CCN(Cc1cccc(S(=O)(=O)O)c1)c1ccc(C(=C2C=CC(=[N+](CC)Cc3cccc(S(=O)(=O)O)c3)C=C2)c2ccccc2S(=O)(=O)[O-])cc1", "outcome": "inactive; active"}, {"smiles": "Cc1cc(C)c(N)cc1C", "outcome": "active"}, {"smiles": "C#CC(C)(C)NC(=O)c1cc(Cl)cc(Cl)c1", "outcome": "active"}, {"smiles": "NC(Cc1c[nH]c2ccccc12)C(=O)O", "note": "(configuration not stated)", "outcome": "inactive"}, {"smiles": "COC(=O)C1=CCCN(N=O)C1", "outcome": "inactive"}, {"smiles": "Clc1cccc(-c2cc(Cl)cc(Cl)c2)c1", "outcome": "active"}, {"smiles": "CC(=O)Nc1ccc(C(=O)CCl)cc1", "outcome": "inactive"}, {"smiles": "CN(C)c1ccc(C(=C2C=CC(=[N+](C)C)C=C2)c2ccc(N(C)C)cc2)cc1", "outcome": "active; inactive"}, {"smiles": "C#C[C@]1(OC(C)=O)CC[C@H]2[C@@H]3CCC4=CC(=O)CC[C@@H]4[C@H]3CC[C@@]21C", "outcome": "active"}, {"smiles": "CCCc1c(OCCCCc2nn[nH]n2)ccc(C(C)=O)c1O", "outcome": "active"}, {"smiles": "O=NN1CCCCCCC1", "outcome": "active"}, {"smiles": "O=C(Nc1cccc2c(=O)cc(-c3nn[nH]n3)oc12)c1ccc(OCCCCc2ccccc2)cc1", "outcome": "inactive; active"}, {"smiles": "Oc1ccc(Cl)cc1Cl", "outcome": "inactive"}, {"smiles": "O=CCBr", "outcome": "inactive; active"}, {"smiles": "C1CCCNCCC1", "outcome": "inactive"}, {"smiles": "CCCCCC", "outcome": "active"}, {"smiles": "O=NN1CCCC1c1ccc[n+]([O-])c1", "note": "(configuration not stated)", "outcome": "active; inactive"}, {"smiles": "Nc1cc(Cl)c(N)c(Cl)c1", "outcome": "active; inactive"}, {"smiles": "CC(=O)Nc1ccc2c(c1)Cc1cc(NC(C)=O)ccc1-2", "outcome": "inactive"}, {"smiles": "N", "outcome": "inactive"}, {"smiles": "COc1ccccc1[N+](=O)[O-]", "outcome": "active"}, {"smiles": "CC(O)CNCC(C)O", "note": "(configuration not stated)", "outcome": "inactive"}, {"smiles": "ClC1C2(Cl)C3C4C5OC5C5C4C1(Cl)C(Cl)(C53)C2(Cl)Cl", "note": "(configuration not stated)", "outcome": "inactive"}, {"smiles": "O=NN1CCC(=O)NC1=O", "outcome": "active"}, {"smiles": "ClC1=C(Cl)[C@]2(Cl)[C@@H]3[C@H]4C=CC(C4)[C@@H]3C1(Cl)C2(Cl)Cl", "outcome": "active"}, {"smiles": "CN(C)C(=S)S", "outcome": "inactive"}, {"smiles": "CC(=O)Oc1ccccc1C(=O)O", "outcome": "inactive"}, {"smiles": "CC(O)CO", "note": "(configuration not stated)", "outcome": "inactive"}, {"smiles": "C=C(C)CCl", "outcome": "active; inactive"}, {"smiles": "Cc1cc(C)nc(-c2ccc([N+](=O)[O-])o2)n1", "outcome": "active"}, {"smiles": "CC(=O)C1C(=O)C=C(C)OC1=O", "note": "(configuration not stated)", "outcome": "inactive; active"}, {"smiles": "CC(O)CN(CCO)N=O", "note": "(configuration not stated)", "outcome": "active"}, {"smiles": "O=[N+]([O-])c1ccc2c(c1)Cc1ccccc1-2", "outcome": "active"}, {"smiles": "CC(C)(C)c1cc(O)ccc1O", "outcome": "inactive"}, {"smiles": "O=C1c2ccccc2-c2ccc3c4c(ccc1c24)-c1ccccc1C3=O", "outcome": "active; inactive"}, {"smiles": "CCC(CC)[N+](=O)[O-]", "outcome": "active"}, {"smiles": "N#CSCc1ccccc1", "outcome": "inactive"}, {"smiles": "OC[C@H]1O[C@H](O[C@]2(CCl)O[C@H](CCl)[C@@H](O)[C@@H]2O)[C@H](O)[C@@H](O)[C@H]1Cl", "outcome": "inactive"}, {"smiles": "Cn1nc(CO)nc1NCCCOc1cccc(CN2CCCCC2)c1", "outcome": "active"}, {"smiles": "CS(=O)(=O)c1ccc([C@@H](O)[C@@H](CO)NC(=O)C(Cl)Cl)cc1", "outcome": "inactive"}, {"smiles": "COc1ccc2c(c1)c(CC(=O)O)c(C)n2C(=O)c1ccc(Cl)cc1", "outcome": "active; inactive"}, {"smiles": "O=C(O)CC(O)(CC(=O)O)C(=O)O", "outcome": "inactive"}, {"smiles": "c1ccc2n[nH]nc2c1", "outcome": "inactive"}, {"smiles": "Cc1ccc2c(-c3cccc(O)c3)nc(=O)n(C(C)C)c2c1", "outcome": "inactive"}, {"smiles": "ClC(Cl)Br", "outcome": "active"}, {"smiles": "CCC1(c2ccccc2)C(=O)NCNC1=O", "outcome": "active"}, {"smiles": "c1ccc2sc(SSc3nc4ccccc4s3)nc2c1", "outcome": "inactive"}, {"smiles": "CC(C)(CCCOc1ccc(OCCCC(C)(C)C(=O)O)c(-c2ccccc2)c1)C(=O)O", "outcome": "active"}, {"smiles": "c1cc(OCC2CO2)cc(OCC2CO2)c1", "note": "(configuration not stated)", "outcome": "active"}, {"smiles": "CO[C@H]1/C=C/O[C@@]2(C)Oc3c(C)c(O)c4c(O)c(c(/C=N/N5CCN(C)CC5)c(O)c4c3C2=O)NC(=O)/C(C)=C\\C=C\\[C@H](C)[C@H](O)[C@@H](C)[C@@H](O)[C@@H](C)[C@H](OC(C)=O)[C@@H]1C", "outcome": "active; inactive"}, {"smiles": "O=NN1CCCCC1c1cccnc1", "note": "(configuration not stated)", "outcome": "active"}, {"smiles": "COc1ccc([N+](=O)[O-])cc1N", "outcome": "active"}]}]}
